Consider 16 compounds from patent US20100273748A1, “ANTIMICROBIAL THERAPY” (priority 2006, published 2010).

Data set [1] concerns Staphylococcus aureus mprF. Kind of data set: Radial diffusion assay. The settings on record: LL-37 incubated in sweat, 37° C., 6 hr. It counts as cell-based. How it is done: Sweat collection and processing. Sweat was collected on paper tissues (Kimwipes, Kimberly-Clark, Ga.) from healthy volunteers after exercise. After collection, 20 ml of sweat was centrifuged at 2000 g for 15 min. at 4° C., filtered through a […] (Acrodisc syringe filter, 0.2 mm, low protein binding, Fisher scientific, Tustin, Calif.), and frozen at −80° C. For some experiments sweat was lyophilized to dryness, then suspended in 400 μl of distilled water (DW: cell culture grade, endotoxin free, GibcoBRL, Grand island, NY). For analysis of LL37 processing by sweat, 1.6 nmol of LL-37 synthetic peptide was incubated in 50 ml of sweat for 0, 1, 6, 24 hrs at 37° C. or 4° C. In some experiments proteinase inhibitors including; mixed protease inhibitor cocktail (1tab/10 ml, Roche, Indianapolis, Ind.), […] Bestatin, 10 mg/ml E-64, 10 mg/ml Aprotinin, (Sigma, St Louis, Mo.); 100 mM AEBSF, 100 mM Neutrophil elastase inhibitor (NEI) or 100 mM leukocyte elastase inhibitor (LEI) (Calbiochem, San Diego, Calif.) were added during incubation. After incubation, 2 ml was assayed by radial diffusion assay to determine antibacterial activity. For analysis by HPLC 32 nmoles LL-37 was incubated in 100u1. To control for potential contamination from paper tissues, parallel processing was done on tissues soaked in phosphate-buffered saline (PBS:137 mM NaCl, 2.7 mM KCL, 4.3 mM Na2HPO4-H2O, 1.4 mM KH2PO4, pH 7.4). No antimicrobial activity was detectable in these preparations. Protein concentrations were evaluated by BCA assay (protein assay reagent, Pierce, Rockford, Ill.) or Bradford protein assay (Bio-Rad, Hercules, Calif.) according to manufacture's instructions. Human tissue and blood collection was approved by the UCSD Human Research Protection Program.
Antimicrobial assays. For screening of antimicrobial activity of HPLC fractions, radial diffusion assay was used. Lyophilized HPLC fractions were dissolved in DW (GibcoBRL, Grand Island, N.Y.), and tested against Staphylococcus aureus mprF. Thin plates (1 mm) of 1% agarose in 0.5% tryptone containing approximately 1×10^6 cells/ml of S. aureus mprF were used. 1 mm wells were punched in the plates and […] of samples dissolved in tissue culture grade sterile water were loaded in each well.

In the next data set the test system is cathelicidin. Description: qPCR of cathelicidin mRNA in cultured keratinocytes. It counts as cell-based, human. How it is done:
(§1) Cell culture and stimuli. Human keratinocytes were grown in serum-free EpiLife® cell culture media (Cascade Biologics; Portland, Oreg.) containing 0.06 mM Ca2+ and 1× EpiLife® defined growth supplement (EDGS) at 37° C. under standard tissue culture conditions. Stock cultures were maintained for up to five passages in this media with the addition of 50 U/mL penicillin and 50 μg/mL streptomycin. HaCaT keratinocytes were cultured in DMEM (Sigma, St. Louis, Mo.) with 10% FCS. Cells at 50-70% confluence were stimulated in fresh medium after preincubation with 1,25(OH)2 vitamin D3 (1,25D3; 0.1-100 nM, 4-24 h; Sigma). Alternatively, NHEK were stimulated in the presence of 1,25D3 (0.1-100 nM). Stimuli included TLR2,6 ligands Malp-2 (0.001-0.5 μg/ml; Alexis Biochemicals, Carlsbad, Calif.), FSL-1 (1-2 μg/ml, Invivogen, San Diego, Calif.) and zymosan (50 μg/ml; Invivogen), as well as flagellin (50 ng/ml; Alexis), LPS (1 μg/ml; Sigma), lipoteichoic acid (LTA; 10 μg/ml; Sigma), 19 kDA lipopeptide (10 μg/ml, a kind gift from S. Krutzik, Division of Dermatology, UCLA), CpG DNA (10 μg/ml; Sigma), Ca2+ (1.7 mM), LPS (1 μg/ml; Sigma), TNFα (20 ng/ml; Chemicon Temecula, Calif.) and TGFβ1 (0.1-1 μg/ml; R&D Systems, Minneapolis, Minn.). A TLR2 blocking antibody (αTLR2; clone TL2.1, 5 μg/ml, eBioscience, San Diego, Calif.) was utilized to investigate the role of TLR2 signaling. Furthermore, keratinocytes were pretreated with a vitamin D receptor antagonist (VDR-antagonist ZK159222 Schering AG; 10^-7M) or the CYP inhibitor itraconazole (ITRA; 10^-7M) before stimulation with TGFβ in the presence of 25OH vitamin D3 (25D3, 10 nM, Sigma).
(§2) Real-time RT-PCR (qPCR). RNA was extracted from cells, epidermal constructs or tissue using Trizol® and 1 μg RNA was reverse transcribed using iScript® (BioRad, Hercules, Calif.). Expression of cathelicidin and GAPDH was analysed by real-time RT-PCR. Predeveloped Taqman® assay probes (ABI, Foster City, Calif.) were used for the analyses of the expression of CYP24A1 (24-hydroxylase), CYP27B1 (1α-hydroxylase), CD14, CD36, TLR1, TLR2, TLR4, TLR6 and murine CD14. All analyses were performed in triplicate from 2-5 independent experiments in an ABI Prism® 7000 Sequence Detection System. Fold induction relative to the vehicle treated control in in vitro experiments was calculated using the comparative Ct method, where ΔΔCt is ΔCt(stimulant)-ΔCt(vehicle), ΔCt is Ct(gene)-Ct(GAPDH) and Ct is the cycle at which an arbitrary detection threshold is crossed. For quantification of transcript abundance in tissue samples target gene expression was normalized to GAPDH and compared to non-treated or non-injured skin.

A further data set has as its system CD14. Description: qPCR of CD14 mRNA in cultured keratinocytes. Particulars: for CD14 mRNA expression: 24 hours. It counts as cell-based, human. How it is done: as §1, §2
Another data set has as its system TLR2. Description: qPCR of TLR2 mRNA in cultured keratinocytes. It counts as cell-based, human. The settings on record: for TLR2 mRNA expression: 24 hours. How it is done:
as §1, §2

Data set [2] concerns wild-type S. aureus (clinical isolate). Description: Radial diffusion assay. It counts as cell-based.
Data set [3] concerns enteroinvasive E. coli 029. Description: Radial diffusion assay. The format is cell-based.
For a further data set, the system named is C. albicans. Kind of data set: Liquid assay, minimum fungicide concentration. It counts as cell-based, Candida albicans.
A further data set concerns acetylated histone H4. Kind of data set: Histone H4 acetylation in keratinocytes (immunofluorescence, Western blot). The format is cell-based, human. The settings on record: NHEK stimulated with butyrate or TLR ligand. How it is done:
Panel a; Immunofluorescence staining of acetylated histone H4 protein in NHEK treated with HDACi in the presence or absence of 1,25D3. […] Panel b: Western blot of acetylated histone 4 from keratinocytes treated with the HDACi butyrate or TLR agonists. […] Bar=30 μM.
The abundance of acetylated histone was directly measured to confirm the inhibitory effects of butyrate and TSA on HDACs. […] To determine if changes in histone acetylation occur upon stimulation of keratinocytes with TLR ligands NHEK were stimulated with different TLR ligands and histone acetylation was assessed.

In another data set the test system is Staphylococcus aureus. Kind of data set: Bacterial growth inhibition (turbidity OD600) with or without carbonate. It counts as cell-based. The settings on record: for increase of LL-37 antimicrobial activity by carbonate containing compound: medium with 32 μM LL-37, pH 7.4, KHCO3 and Na2CO3 at 50 mM.
Setting [4] is: pretreatment with antagonist 10^−7M.
Where [5] appears, read: radial diffusion and solution assay.
Setting [6] is: 25D3 (10 nM) or TGF (1 μg/ml) alone.
Where [7] appears, read: 25D3 (10 nM) together with TGF (1 μg/ml).

Protocol for C. albicans: Action against the C. albicans was determined in Dixon medium (0.6% Peptone, 4% Malt Extract, 1% Glucose, 0.1% Ox Bile, 1% Tween-80) in sterile 96-well microtiter plates (Corning Inc., Corning, N.Y.) at a final volume of 50 ml. […] Microtiter plates were incubated at 37° C. for 24 h with peptides, then plated on Dixon agar to determine the MFC (minimum fungicide concentration).

On to `NCCc1ccc(S(=O)(=O)F)cc1` [AEBSF], for which the “blocking of the gain in LL-37 antimicrobial activity in sweat by protease inhibitor” value in data set [1] was “most effective in blocking the increase in antimicrobial activity”. Regarding `C=C1/C(=C\C=C2/CCC[C@]3(C)[C@@H]([C@H](C)/C=C/[C@@H](O)C4(C(=O)OCCCC)CC4)CC[C@@H]23)C[C@@H](O)C[C@@H]1O` [VAZ], the “effect of VDR antagonist on cathelicidin induction by HDAC inhibitor plus 1,25D3” value with cathelicidin (ZK159222 10^−7 M, BUT 2 mM, 1,25D3 10^−8 M, 24 hours) was “decreased the capacity of the HDAC inhibitor to increase cathelicidin”. The “block of cathelicidin induction by TGF plus 25D3” value in the data set with cathelicidin (setting [4]) was “blocked this effect”. In addition, the “block of CD14 induction by TGF plus 25D3” value in the data set with CD14 (setting [4]) is “blocked this effect”. Besides, in the data set with TLR2 (setting [4]), the “block of TLR2 induction by TGF plus 25D3” value is reported as “blocked this effect”. Turning to “RKSKEKIGKEFKRIVQRIKDFLRNLVPRTES [RK-31, cathelicidin peptide generated from LL-37 in sweat]”, the “action against wild-type S. aureus compared to LL-37” value in [2] (setting [5]) is given as “greatly increased action”. In addition, the “action against E. coli compared to LL-37” value in data set [3] (setting [5]) is recorded as “greatly increased action”. Besides, in the data set with C. albicans, the “fungicidal activity against Candida albicans compared to LL-37” value is listed as “increased fungicidal activity”. Turning to flagellin, in the data set on cathelicidin (keratinocytes pretreated with 1,25D3 0.1 nM 24 hours, then TLR ligand 24 hours), the “cathelicidin expression in response to TLR ligand” value was “not to other TLR agonists”. The “acetylation of histone H4” value with acetylated histone H4 is given as “did not change histone acetylation”.

On to FSL-1, for which the “cathelicidin induction by TLR2,6 ligand” value with cathelicidin (in the presence of 1,25D3 (100 nM)) is “capable of inducing cathelicidin”. For the compound Poly(I:C), in the data set with acetylated histone H4, the “acetylation of histone H4” value is reported as “did not change histone acetylation”. On to Aprotinin, for which the “blocking of the gain in LL-37 antimicrobial activity in sweat by protease inhibitor” value in data set [1] is “most effective in blocking the increase in antimicrobial activity”. As for Human Beta Defensin-2, in the data set with Staphylococcus aureus (20% TSB, 10% FBS, 1 mM NaH2PO4, 150 mM NaCl, pH 7.4), the “enhancement of peptide activity by 50 mM NaHCO3 (EF)” value is “enhanced”.

As to `CC(/C=C/C(=O)NO)=C\[C@@H](C)C(=O)c1ccc(N(C)C)cc1` [Trichostatin A], the “effect of HDAC inhibitor on 1,25D3 induced cathelicidin” value with cathelicidin (TSA 200 ng ml^−1 with 1,25D3 (10^−8M)) is given as “significantly increased 1,25D3 induced cathelicidin”. In the case of `O=C([O-])O.[K+]` [KHCO3], the “increase of LL-37 antimicrobial activity by carbonate containing compound” value in the data set on Staphylococcus aureus is “also increased antimicrobial activity”. `CC(C)Cn1cnc2c(N)nc3ccccc3c21` [Imiquimod]: the “acetylation of histone H4” value with acetylated histone H4 is recorded as “did not change histone acetylation”. On to “PR-39: porcine cathelicidin antimicrobial peptide (RRRPRPPYLPRPRPPPFFPPRLPPRIPPGFPPRFPPRFP; UniProt P80054 131-169, looked up)”, for which, in the data set on Staphylococcus aureus (20% TSB, 1 mM NaH2PO4, with or without 50 mM NaHCO3, pH 7.4), the “change of minimal inhibitory concentration (MIC) by NaHCO3” value was “greatly reduced”. For the compound `C=C1CC[C@H](O)C/C1=C/C=C1\CCC[C@]2(C)[C@@H]([C@H](C)CCCC(C)(C)O)CC[C@@H]12` [25D3, 25OH vitamin D3], the “cathelicidin mRNA expression” value in the data set with cathelicidin (25D3 (10 nM) or TGF (1 μg/ml) alone, 24 hours) was “Neither 25D3 nor TGF alone affected expression”; with cathelicidin (25D3 (10 nM) together with TGF (1 μg/ml), 24 hours), “simultaneous addition induced”. For the same compound, the “CD14 mRNA expression” value is listed as “Neither 25D3 nor TGF alone affected expression” in the data set on CD14 (setting [6]) and “simultaneous addition induced” in the data set with CD14 (setting [7]). In addition, the “TLR2 mRNA expression” value is on record as “Neither 25D3 nor TGF alone affected expression” with TLR2 (setting [6]) and “simultaneous addition induced” with TLR2 (setting [7]). As for `O=C([O-])[O-].[Na+].[Na+]` [Na2CO3], the “increase of LL-37 antimicrobial activity by carbonate containing compound” value in the data set on Staphylococcus aureus was “also increased antimicrobial activity”. As for `CCCc1nc2c(N)nc3ccccc3c2s1` [CL075], the “acetylation of histone H4” value in the data set with acetylated histone H4 was “did not change histone acetylation”. Turning to “KRIVQRIKDFLRNLVPRTES [KR-20, 20 amino acid cathelicidin derivative generated from LL-37 in sweat]”, the “Radial Diffusion Assay, minimal inhibitory concentration (MIC), S. aureus (wt)” value in data set [2] stood at 4 μm. Moreover, the “Radial Diffusion Assay, minimal inhibitory concentration (MIC), E. coli (O29))” value in data set [3] was 4 μm. In addition, the “fungicidal activity against Candida albicans compared to LL-37” value with C. albicans is given as “increased fungicidal activity”.
